Assay results: patent US20110294803A1, “PHOSPHATIDYLINOSITOL-3-KINASE P110 DELTA-TARGETED DRUGS IN THE TREATMENT OF CNS DISORDERS” (priority 2008, published 2011)
“Also recorded” adds a separate entry of the source.

Tests used:
ErbB3 mRNA = ErbB3 mRNA expression in hippocampus of rats treated chronically with haloperidol; format: in vivo, rat; settings: haloperidol 0.08 or 0.6 mg/kg/day i.p. once daily for 28 days
Description: (§1) To explore this hypothesis, rats treated chronically with haloperidol, a standard antipsychotic drug, were tested for PIK3CD expression in the brain. Male Sprague-Dawley rats (weight 250 g) were on a 12-h light/dark cycle (lights on/off 0600 hours/1800 hours) in a temperature-controlled environment and with access to food and water. Rats were randomly assigned to drug treatment groups (8 per dose) and administered intraperitoneal injections of haloperidol (0.08 or 0.6 mg/kg/day) or vehicle (0.02% lactic acid) once daily for 28 days. Haloperidol (20 mg/ml) was prepared in 1% lactic acid, diluted with water, and neutralized with 1M NaOH to obtain pH 5.3. Rats were euthanized 7 h after the last injection. Brains were dissected and frozen at −80° C. PIK3CD, PIK3R3, ErbB4, and ErbB3 mRNA expression was determined in rat hippocampus using methods described above. Association of mRNA expression with haloperidol treatment was analyzed by ANOVA.

PIK3CD mRNA = PIK3CD mRNA expression in hippocampus of rats treated chronically with haloperidol; format: in vivo, rat; settings: haloperidol 0.08 or 0.6 mg/kg/day i.p. once daily for 28 days, compared to untreated rats; F(2,22)=9.45, p=0.001
Description: as §1

PIK3R3 mRNA = PIK3R3 mRNA expression in hippocampus of rats treated chronically with haloperidol; format: in vivo, rat; settings: haloperidol 0.08 or 0.6 mg/kg/day i.p. once daily for 28 days
Description: as §1

ErbB4 mRNA = ErbB4 mRNA expression in hippocampus of rats treated chronically with haloperidol; format: in vivo, rat; settings: haloperidol 0.08 or 0.6 mg/kg/day i.p. once daily for 28 days
Description: as §1

[1] = Passive blood-brain barrier permeability analysis by partitioning (Analiza); format: physicochemical
Description: For compounds to be clinically useful to treat CNS disorders, they should penetrate the blood-brain barrier (BBB). […] The degree of BBB penetration is measured as the ratio of the steady-state concentrations of the drug in the brain and in the blood, expressed as log(Cbrain/Cblood) or log BB. Compounds with logBB>0.3 (i.e. Cbrain/Cblood>2.0) cross the BBB readily. From these studies, IC87114 represents one of these compounds.
BBB analysis was performed using Analiza assays: Based upon a method described previously, a combination of two descriptors representing the lipophilicity (as measured by octanol-buffer partitioning, logD7.4) and relative hydrophobicity (as measured by aqueous two-phase partitioning (ATPPS), N(CH2)) of organic compounds was used to determine if that compound will permeate the blood-brain barrier.
Sample Preparation: One sample was received as 10 mM stock solutions in Dimethyl sulfoxide (DMSO) frozen on dry ice in a microtube. […]
Partitioning Experiments: Partitioning in an aqueous dextran-polyethylene glycol (Dex-PEG) two-phase system containing 0.15M NaCl in 0.01M sodium phosphate buffer at pH 7.4 was performed with an Automated Signature Workstation (Analiza, Inc. Cleveland, Ohio). […] Relative Hydrophobicity (N(CH2)) is then calculated from this partition coefficient. […] Relative Hydrophobicity (N(CH2) is then calculated from this partition coefficient. […]

[2] = tested on: COMT*dysbindin double knockout mice; assay: Amphetamine-induced stereotypy in a genetic mouse model of schizophrenia; format: in vivo; settings: IC87114 0.1 mg/kg i.p. pretreatment, D-amphetamine 1.5 mg/kg i.p.
Source text: Subjects. All procedures were approved by the NIMH Animal Care and Use Committee and followed the NIH Guidelines “Using Animals in Intramural Research.” To derive the double knockout mice, the lines of COMT knockout mice and dysbindin knockout mice previously described were used. COMT*dysbindin double knockout mice (COMT−/− dys−/−) were littermates and bred by double heterozygote mating (dCOMT+/−dys+/− with cCOMT+/−dys+/−). Mice were identified by PCR analysis of tail DNA. Mice were group-housed (2-4/cage) in a climate-controlled animal facility (22±2° C.) and maintained on a 12-hr light/dark cycle, with free access to food and water. Testing was conducted in male mice, 7 months old, during the light phase. Experimenters were blind to the genotype during behavioral testing. Mice were handled by the experimenter on alternate days during the week preceding the tests. At least one hour before any test manipulation, mice were habituated in a room adjacent to the testing room.
Stereotypy behavior with IC87114 and Amphetamine Treatment. […] Stereotypy was scored from videotapes by an observer blind to the treatments and genotype conditions of each mouse. […]
Statistical analysis. Results were expressed as mean±standard error of the mean (S.E.M.) throughout. […]

[3] = tested on: Human B-lymphoblast cells (LCLs); assay: NRG1-induced lymphocyte (LCL) migration, Transwell assay; format: cell-based; settings: 0.1 uM, 60 min preincubation; LCLs of normal individuals and patients with schizophrenia; NRG-1 200 ng/ml, 4 hours
Description: The cellular phenotype is migration of lymphocytes to the chemoattractant, Neuregulin (NRG1), a key regulator of brain development. NRG1 induced LCL migration is diminished in patients with schizophrenia.
Human B-lymphoblast cells were cultured in RPMI 1640 without L-Glutamine medium (Quality Biological, Inc.) supplemented with 15% fetal bovine serum (FBS), 1% Penicillin-streptomycin, and 2% L-Glutamine in a 5% CO2 incubator at 37° C. Prior to performing migration assay, cells were incubated for 16-18 hours in the same culture, lowering the concentration of FBS to 2%. […] Following incubations, cells were seeded into the top chamber of the HTS […] Transwell®-96 Cell Migration plate (Corning) at 4×10^5 cell/well concentration in a 50 μl volume. NRG-1 serum free RPMI solution with antibiotics and L-Glutamine supplements (NRG-1 200 ng/ml; 160 μl) was added to the bottom chamber and incubated for 4 hours at 37° C. 75 μl of the bottom chamber fraction was collected and combined with 25 μl of cyquant/lysis buffer reagent (according to Invitrogen protocol) for 15 min at RT and in the dark, and then read with a Wallac 1420 VICTOR3 multilabel plate reader under standard fluorescein (485 nm/535 nm, 1.0 s) protocol.

C57BL/6J mice [4] = assay: Baseline locomotor activity in open field; format: in vivo, mouse; settings: IC87114 0.1 mg/kg i.p., male C57BL/6J mice, no amphetamine
Description: (§2) Subjects. C57BL/6J mice were purchased from The Jackson Laboratory at 8 weeks old. All mice were group-housed (4/cage) in a climate-controlled animal facility (22±2° C.) and maintained on a 12-hr light/dark cycle, with free access to food and water. Testing was conducted in male mice, at ages 2-3 months, during the light phase of the circadian cycle. Mice were handled by the experimenter on alternate days during the week preceding the tests. At least one hour before any test manipulation, mice were habituated in a room adjacent to the testing room.
Mice were tested on day 1 in an experimental apparatus consisting of four Plexiglas Digiscan automated open fields (Accuscan; 42×42×30 cm dimensions). One red light (5±2 lux) was placed overhead, evenly illuminating each open field. Each apparatus contained photobeam sensors to measure the exploratory and locomotor activity of the mice. During the first 10-minute session, mice were placed in the empty open field and allowed to explore the arena. […] They were then place back in the same open field for an additional 75 minutes. All sessions were videotaped. […] “Vehicle-treated” mice were injected with the same volume of 0.25% DMSO in saline physiological saline.
Statistical analysis. Results were expressed as mean±standard error of the mean (S.E.M.) throughout. Student T-test, Two- or Three-Way analysis of variance (ANOVA) was used. […]

C57BL/6J mice [5] = assay: Amphetamine-induced locomotor activity in open field, normal mice; format: in vivo, mouse; settings: IC87114 0.1 mg/kg i.p. pretreatment; D-amphetamine 0.75 or 1.5 mg/kg i.p.; male C57BL/6J mice
Description: as §2
On day 3, mice were tested in the same experimental apparatus and conditions as on day 1. […] During the first 10-minute session mice were placed in the same empty open field as day 1. Immediately after, mice were removed from the field and given an injection of D-amphetamine sulphate (either 0.75 mg/kg or 1.5 mg/kg, i.p., Sigma-Aldrich, St. Louis, Mo., USA). They were then placed back in the same open field and allowed to explore for an additional 75 minutes. Amphetamine was dissolved in physiological saline and injected in a volume of 10 ml/kg.
Statistical analysis. Results were expressed as mean±standard error of the mean (S.E.M.) throughout. Student T-test, Two- or Three-Way analysis of variance (ANOVA) was used. Post-hoc analyses for individual group comparisons employed Newman-Keuls analyses.

SMILES	ErbB3 mRNA expression in rat hippocampus (ErbB3 mRNA)	expression of PIK3CD mRNA in rat hippocampus (PIK3CD mRNA)	PIK3R3 mRNA expression in rat hippocampus (PIK3R3 mRNA)	ErbB4 mRNA expression in rat hippocampus (ErbB4 mRNA)	logBB (log(Cbrain/Cblood)) ([1]; calculated from partitioning data)	Kp ([1]; not told, calculated from log D (octanol-buffer, pH 7.4) and N(CH2) (aqueous two-phase partitioning), read-out: Cbrain/Cblood)	amphetamine-induced stereotypy [2]	LCL migration in response to NRG-1 stimulation [3]	baseline locomotor activity (distance traveled during 75 minutes) (C57BL/6J mice [4])	amphetamine-induced hyperlocomotion (distance traveled during 75 minutes) (C57BL/6J mice [5])
O=C(CCCN1CCC(O)(c2ccc(Cl)cc2)CC1)c1ccc(F)cc1 [haloperidol]	did not affect	decreases expression of PIK3CD mRNA	did not affect	did not affect						
Cc1ccccc1-n1c(Cn2cnc3c(N)ncnc32)nc2cccc(C)c2c1=O [IC87114]					> 0.3	> 2	dramatically reduces amphetamine-induced stereotypy; also recorded: diminished	Rescues a Cellular Phenotype Related to Schizophrenia; also recorded: significantly improve LCL migration	no effect on baseline locomotor activity; also recorded: without affecting baseline behavior; also recorded: did not show any drug-treatment effect	reduces amphetamine-induced hyperlocomotion; also recorded: reduces amphetamine induced locomotor abnormalities; also recorded: blocked the amphetamine-induced increase in locomotor activity
